Assay results reported in ChEMBL document CHEMBL1777785, “A novel approach for predicting P-glycoprotein (ABCB1) inhibition using molecular interaction fields” (J Med Chem, 2011).

What follows are compounds tested against T1, ATP-dependent translocase ABCB1 (Homo sapiens, UniProt P08183). Settings: not given.
T1 sequence (P08183 whole entry): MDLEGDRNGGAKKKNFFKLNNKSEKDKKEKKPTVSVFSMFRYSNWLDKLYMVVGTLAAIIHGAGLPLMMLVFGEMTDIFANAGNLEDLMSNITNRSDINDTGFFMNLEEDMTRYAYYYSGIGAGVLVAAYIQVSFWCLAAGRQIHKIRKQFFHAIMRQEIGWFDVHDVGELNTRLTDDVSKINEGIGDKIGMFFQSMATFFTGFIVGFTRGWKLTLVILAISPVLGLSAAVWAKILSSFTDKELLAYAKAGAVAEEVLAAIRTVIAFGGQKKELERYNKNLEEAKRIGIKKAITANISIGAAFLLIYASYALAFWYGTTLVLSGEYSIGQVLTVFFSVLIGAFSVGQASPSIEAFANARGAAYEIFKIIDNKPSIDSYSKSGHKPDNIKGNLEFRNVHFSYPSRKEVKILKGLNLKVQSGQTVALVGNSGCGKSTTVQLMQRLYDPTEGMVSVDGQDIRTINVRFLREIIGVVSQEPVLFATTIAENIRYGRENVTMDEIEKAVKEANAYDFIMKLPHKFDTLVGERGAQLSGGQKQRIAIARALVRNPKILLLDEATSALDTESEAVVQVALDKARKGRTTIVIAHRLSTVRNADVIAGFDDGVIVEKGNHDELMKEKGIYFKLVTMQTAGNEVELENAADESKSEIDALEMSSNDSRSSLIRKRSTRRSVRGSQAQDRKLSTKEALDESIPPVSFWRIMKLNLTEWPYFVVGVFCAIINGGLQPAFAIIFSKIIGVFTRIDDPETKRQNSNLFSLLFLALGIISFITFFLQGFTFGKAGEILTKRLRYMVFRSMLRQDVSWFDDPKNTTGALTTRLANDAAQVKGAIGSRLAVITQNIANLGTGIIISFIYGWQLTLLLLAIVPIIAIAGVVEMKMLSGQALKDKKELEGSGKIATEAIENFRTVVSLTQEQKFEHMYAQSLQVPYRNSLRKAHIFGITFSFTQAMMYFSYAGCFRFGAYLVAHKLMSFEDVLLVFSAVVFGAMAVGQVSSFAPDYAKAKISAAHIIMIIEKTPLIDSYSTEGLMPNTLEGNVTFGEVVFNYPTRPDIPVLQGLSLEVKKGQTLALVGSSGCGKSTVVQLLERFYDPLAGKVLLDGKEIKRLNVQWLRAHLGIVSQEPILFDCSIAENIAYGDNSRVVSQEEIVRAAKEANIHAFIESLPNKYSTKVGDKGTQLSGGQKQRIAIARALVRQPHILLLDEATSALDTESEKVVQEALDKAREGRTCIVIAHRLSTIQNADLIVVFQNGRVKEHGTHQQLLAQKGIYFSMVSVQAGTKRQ

Question: Which IC50 does the source give for `O=C1NCCN1CCN1CCC(c2cn(-c3ccc(F)cc3)c3ccc(Cl)cc23)CC1` [SERTINDOLE] here?
Answer: The IC50 was 6.5 µM.

The compounds below were run against T1, ATP-dependent translocase ABCB1. Settings: l5178, 20 min, 100 µM.

Question: For `O=C1CCc2ccc(OCCCCN3CCN(c4cccc(Cl)c4Cl)CC3)cc2N1` [ARIPIPRAZOLE], which Alpha max is on record?
Answer: The Alpha max was 0.99.

Question: Which Alpha max does the source give for `CCN(CC)CCCN(c1ccccc1)C1Cc2ccccc2C1` [APRINDINE] here?
Answer: Its Alpha max is 0.16.

Question: `CC(C)[C@H]1CC[C@H](C(=O)N[C@H](Cc2ccccc2)C(=O)O)CC1` [NATEGLINIDE] was tested. Which Alpha max did it give?
Answer: Its Alpha max is 0.

Question: Which Alpha max does the source give for `CC1(C)S[C@@H]2[C@H](NC(=O)[C@H](C(=O)O)c3ccsc3)C(=O)N2[C@H]1C(=O)O` [TICARCILLIN] here?
Answer: The Alpha max was 0.

Question: With `C=CCc1ccccc1OCC(O)CNC(C)C` (centres undefined) [ALPRENOLOL] as the compound, how does the Alpha max read?
Answer: Its Alpha max is 0.05.

Question: For `CCOc1cc(CC(=O)N[C@@H](CC(C)C)c2ccccc2N2CCCCC2)ccc1C(=O)O` [REPAGLINIDE], which Alpha max is on record?
Answer: Its Alpha max is 0.35.

Question: `O=C1Cc2cc(CCN3CCN(c4nsc5ccccc45)CC3)c(Cl)cc2N1` [ZIPRASIDONE] was tested. Which Alpha max did it give?
Answer: Its Alpha max is 0.19.

Question: For `O=C1NCCN1CCN1CCC(c2cn(-c3ccc(F)cc3)c3ccc(Cl)cc23)CC1` [SERTINDOLE], which Alpha max is on record?
Answer: Its Alpha max is 0.74.
